Patent US8524726B2, “Amido derivatives and their use as positive allosteric modulators of metabotropic glutamate receptors” (Addex Pharma, SA, priority 2007, dated 2013)

What was measured:
[1] = target: T1, recombinant human mGluR4a receptors (Homo sapiens, UniProt Q14833); assay: Fluorescent cell based Ca2+ mobilization assay (FLIPR) on HEK-293 cells expressing human mGluR4; conditions: HEK-293 cells expressing hmGluR4, Fluo-4, potentiation of EC25 glutamate; mean of at least three independent experiments in duplicate; read-out: Ca2+ Flux (mean EC50)
T1 construct: expressed in transfected cells
T1 sequence (Q14833 33-912): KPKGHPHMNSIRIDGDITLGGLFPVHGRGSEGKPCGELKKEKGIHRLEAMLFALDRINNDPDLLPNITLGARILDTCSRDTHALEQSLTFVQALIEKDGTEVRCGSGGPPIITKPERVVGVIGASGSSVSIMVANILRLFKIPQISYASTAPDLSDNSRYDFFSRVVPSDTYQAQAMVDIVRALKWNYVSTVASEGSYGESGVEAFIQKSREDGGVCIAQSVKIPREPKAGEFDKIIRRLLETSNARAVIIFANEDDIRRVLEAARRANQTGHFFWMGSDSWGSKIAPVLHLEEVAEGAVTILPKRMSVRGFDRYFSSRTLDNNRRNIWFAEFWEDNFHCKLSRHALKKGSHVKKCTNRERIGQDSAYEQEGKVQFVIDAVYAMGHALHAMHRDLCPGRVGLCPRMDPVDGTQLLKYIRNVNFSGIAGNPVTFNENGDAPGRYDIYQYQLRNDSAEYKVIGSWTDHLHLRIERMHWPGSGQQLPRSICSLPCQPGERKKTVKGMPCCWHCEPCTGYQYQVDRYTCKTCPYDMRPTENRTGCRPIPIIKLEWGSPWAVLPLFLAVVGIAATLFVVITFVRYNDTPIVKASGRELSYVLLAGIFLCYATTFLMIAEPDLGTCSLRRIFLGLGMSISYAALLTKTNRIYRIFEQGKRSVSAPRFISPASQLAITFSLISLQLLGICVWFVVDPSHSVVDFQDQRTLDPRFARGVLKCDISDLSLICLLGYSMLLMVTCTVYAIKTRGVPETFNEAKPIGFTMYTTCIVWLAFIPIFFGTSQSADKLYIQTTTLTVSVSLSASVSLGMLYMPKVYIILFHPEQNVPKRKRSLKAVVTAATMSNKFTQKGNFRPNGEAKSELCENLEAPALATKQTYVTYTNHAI
Source text: mGluR4 Assay on HEK-Expressing Human mGluR4
Their activity was examined on recombinant human mGluR4a receptors by detecting changes in intracellular Ca^2+ concentration, using the fluorescent Ca^2+-sensitive dye Fluo-4-(AM) and a Fluorometric Imaging Plate Reader (FLIPR, Molecular Devices, Sunnyvale, Calif.)
Transfection and Cell Culture
The cDNA encoding the human metabotropic glutamate receptor (hmGluR4), (accession number NM_000841.1, NCBI Nucleotide database browser), was subcloned into an expression vector containing also the hygromycin resistance gene. In parallel, the cDNA encoding a G protein allowing redirection of the activation signal to intracellular calcium flux was subcloned into a different expression vector containing also the puromycin resistance gene. […] Positive cellular clones expressing hmGluR4 were identified in a functional assay measuring changes in calcium fluxes in response to glutamate or selective known mGluR4 orthosteric agonists and antagonists
HEK-293 cells expressing hmGluR4 were maintained in media containing DMEM, dialyzed Fetal Calf Serum (10%), Glutamax™ (2 mM), Penicillin (100 units/ml), Streptomycin (100 μg/ml), Geneticin (100 μg/ml) and Hygromycin-B (40 μg/ml) and puromycin (1 μg/ml) at 37° C./5% CO2.
Fluorescent Cell Based-Ca^2+ Mobilization Assay
Human mGluR4 HEK-293 cells were plated out 24 hours prior to FLIPR^384 assay in black-walled, clear-bottomed, poly-L-ornithine-coated 384-well plates at a density of 25,000 cells/well in a glutamine/glutamate free DMEM medium containing foetal bovine serum (10%), penicillin (100 units/ml) and streptomycin (100 μg/ml) at 37° C./5% CO2.
On the day of the assay, the medium was aspirated and the cells were loaded with a 3 μM solution of Fluo-4-AM (LuBioScience, Lucerne, Switzerland) in 0.03% pluronic acid. After 1 hour at 37° C./5% CO2, the non incorporated dye was removed by washing cell plate with the assay buffer and the cells were left in the dark at room temperature for six hours before testing. All assays were performed in a pH 7.4 buffered-solution containing 20 mM HEPES, 143 mM NaCl, 6 mM KCl, 1 mM MgSO4, 1 mM CaCl2, 0.125 mM sulfapyrazone, 0.1% glucose.
After 10 s of basal fluorescence recording, various concentrations of the compounds of the invention were added to the cells. Changes in fluorescence levels were first monitored for 180 s in order to detect any agonist activity of the compounds. Then the cells were stimulated by an EC25 glutamate concentration for an additional 110 s in order to measure enhancing activities of the compounds of the invention. EC25 glutamate concentration is the concentration giving 25% of the maximal glutamate response.
The concentration-response curves of representative compounds of the present invention were generated using the Prism GraphPad software (Graph Pad Inc, San Diego, USA). The curves were fitted to a four-parameter logistic equation: (Y=Bottom+(Top-Bottom)/(1+10^((Log EC50−X)*Hill Slope) allowing determination of EC50 values.

Structure (SMILES)	melting point [°C]	EC50 [1] [µM]
O=C(Nc1cccc(F)c1)c1ccccn1 [Compound 1-4, N-(3-Fluorophenyl)picolinamide]	74 to 75	–
N#Cc1cccnc1Oc1ccc(NC(=O)c2ccccn2)cc1Cl [Compound 3-16, N-(3-Chloro-4-(3-cyanopyridin-2-yloxy)phenyl)picolinamide]	223 to 228	–
CCC(=O)N1CCN(c2ccc(NC(=O)c3ccccn3)cc2Cl)CC1 [Compound 4-3, N-(3-Chloro-4-(4-propionylpiperazin-1-yl)phenyl)picolinamide]	176 to 179	1 to 10
O=C(Nc1cccc(OCC(=O)c2ccccc2F)c1)c1ccccn1 [Compound 2-15, N-(3-(2-(2-Fluorophenyl)-2-oxoethoxy)phenyl)picolinamide]	98 to 101	1 to 10
COc1cccc(NC(=O)c2cc(C)on2)c1 [Compound 2-13, N-(3-Methoxyphenyl)-5-methylisoxazole-3-carboxamide]	98 to 101	1 to 10
COc1ccccc1C(=O)COc1cccc(NC(=O)c2ccccn2)c1 [Compound 2-9, N-(3-(2-(2-Methoxyphenyl)-2-oxoethoxy)phenyl)picolinamide]	136 to 137	1 to 10
CC(C)C(=O)N1CCN(c2ccc(NC(=O)c3ccccn3)cc2Cl)CC1 [Compound 4-2, N-(3-Chloro-4-(4-isobutyrylpiperazin-1-yl)phenyl)picolinamide]	156 to 158	–
COc1cc(NC(=O)c2ccccn2)ccc1F [Compound 2-14, N-(4-Fluoro-3-methoxyphenyl)picolinamide]	–	< 1
O=C(COc1cccc(NC(=O)c2ccccn2)c1)c1cccc(Cl)c1 [Compound 2-7, N-(3-(2-(3-Chlorophenyl)-2-oxoethoxy)phenyl)picolinamide]	139 to 140	1 to 10
COc1cccc(NC(=O)c2ccncn2)c1 [Compound 2-16, N-(3-Methoxyphenyl)pyrimidine-4-carboxamide]	119 to 122	1 to 10
O=C(Nc1ccc(Oc2ccc(C(F)(F)F)cn2)c(Cl)c1)c1ccccn1 [Compound 3-8, N-(3-Chloro-4-(5-(trifluoromethyl)pyridin-2-yloxy)phenyl)picolinamide]	92 to 94	1 to 10
O=C(Nc1cccc(OCC(=O)c2ccccc2Cl)c1)c1ccccn1 [Compound 2-12, N-(3-(2-(2-Chlorophenyl)-2-oxoethoxy)phenyl)picolinamide]	–	1 to 10
O=C(COc1cccc(NC(=O)c2ccco2)c1)c1ccc(F)cc1 [Compound 2-2, Furan-2-carboxylic acid {3-[2-(4-fluoro-phenyl)-2-oxo-ethoxy]-phenyl}-amide]	148 to 149	–
O=C(Nc1ccc(N2CCN(C(=O)c3ccccc3)CC2)c(Cl)c1)c1ccccn1 [Compound 4-4, N-(4-(4-Benzoylpiperazin-1-yl)-3-chlorophenyl)picolinamide]	161 to 163	1 to 10
O=C(Nc1ccc(Oc2ncccn2)c(Cl)c1)c1ccccn1 [Compound 3-2, N-(3-Chloro-4-(pyrimidin-2-yloxy)phenyl)picolinamide]	195 to 197	< 1

Continued, values first:

melting point [°C]	EC50 [1] [µM]	Structure (SMILES)
118 to 121	1 to 10	O=C(COc1cccc(NC(=O)c2ccccn2)c1)c1cccc(F)c1 [Compound 2-11, N-(3-(2-(3-Fluorophenyl)-2-oxoethoxy)phenyl)picolinamide]
49 to 51	1 to 10	O=C(Nc1cccc(OCCCc2ccccc2)c1)c1ccccn1 [Compound 2-8, N-(3-(3-Phenylpropoxy)phenyl)picolinamide]
104 to 105	–	O=C(Nc1ccc(Oc2ccc(F)cc2)c(Cl)c1)c1ccccn1 [Compound 3-13, N-(3-Chloro-4-(4-fluorophenoxy)phenyl)picolinamide]
78 to 80	–	O=C(Nc1ccc(Oc2cccc(F)c2)c(Cl)c1)c1ccccn1 [Compound 3-12, N-(3-Chloro-4-(3-fluorophenoxy)phenyl)picolinamide]
53 to 57	1 to 10	COc1cccc(NC(=O)c2nccs2)c1 [Compound 2-5, N-(3-Methoxyphenyl)thiazole-2-carboxamide]
103 to 105	1 to 10	COc1cc(NC(=O)c2nccs2)ccc1F [Compound 2-18, N-(4-Fluoro-3-methoxyphenyl)thiazole-2-carboxamide]
102 to 104	–	O=C(Nc1ccc(Oc2cc(F)ccc2F)c(Cl)c1)c1ccccn1 [Compound 3-6, N-(3-Chloro-4-(2,5-difluorophenoxy)phenyl)picolinamide]
203 to 205	–	COc1cc(NC(=O)c2ccccn2)ccc1Oc1ncccn1 [Compound 3-9, N-(3-Methoxy-4-(pyrimidin-2-yloxy)phenyl)picolinamide]
138 to 140	1 to 10	O=C(Nc1cccc(Cl)c1)c1ccc[nH]1 [Compound 1-5, N-(3-Chlorophenyl)-1H-pyrrole-2-carboxamide]
124 to 125	1 to 10	COc1cc(NC(=O)c2cccc(F)n2)ccc1F [Compound 2-17, 6-Fluoro-N-(4-fluoro-3-methoxyphenyl)picolinamide]
254 to 260	< 1	O=C(Nc1ccc(Oc2ccccn2)c(Cl)c1)c1ccccn1 [Compound 3-5, N-(3-Chloro-4-(pyridin-2-yloxy)phenyl)picolinamide]
92 to 94	1 to 10	O=C(Nc1ccc(N2CCN(Cc3ccccc3)CC2)c(Cl)c1)c1ccccn1 [Compound 4-5, N-(4-(4-Benzylpiperazin-1-yl)-3-chlorophenyl)picolinamide]
157 to 159	< 1	N#Cc1ccc(Oc2ccc(NC(=O)c3ccccn3)cc2Cl)cc1 [Compound 3-15, N-(3-Chloro-4-(4-cyanophenoxy)phenyl)picolinamide]
–	< 1	O=C(Nc1cccc(Cl)c1)c1ccccn1 [Compound 1-3, N-(3-Chlorophenyl)picolinamide]
87 to 89	1 to 10	COc1cccc(NC(=O)c2csc(C)n2)c1 [Compound 2-4, N-(3-Methoxyphenyl)-2-methylthiazole-4-carboxamide]
139 to 140	1 to 10	O=C(Nc1cccc(Cl)c1)c1cccs1 [Compound 1-2, N-(3-Chlorophenyl)thiophene-2-carboxamide]
142 to 150	–	Cc1nc(C(=O)Nc2ccc(Oc3ncccn3)c(Cl)c2)cs1 [Compound 3-3, N-(3-Chloro-4-(pyrimidin-2-yloxy)phenyl)-2-methylthiazole-4-carboxamide]
154	1 to 10	O=C(Nc1ccc(Oc2ncccn2)c(Cl)c1)c1nccs1 [Compound 3-4, N-(3-Chloro-4-(pyrimidin-2-yloxy)phenyl)thiazole-2-carboxamide]
114.5 to 115.5	1 to 10	COc1cccc(C(=O)COc2cccc(NC(=O)c3ccccn3)c2)c1 [Compound 2-10, N-(3-(2-(3-Methoxyphenyl)-2-oxoethoxy)phenyl)picolinamide]
